Where two headings read alike, the source gives them in different places.
Columns and labels:
human RORγ = target: T1, human RORγ (Homo sapiens, UniProt P51449); experiment: Luciferase reporter gene assay of inhibitory effect against RORγ transcriptional activity (GAL4-hRORγ plasmid in CHO cells); format: cell-based
T1 construct: human, NM_005060.3 and from Ser253 to Lys518; expressed in transfected cells; host or cells: CHO cells (transient co-transfection with pG5-Luc reporter)
T1 sequence (P51449 253-518): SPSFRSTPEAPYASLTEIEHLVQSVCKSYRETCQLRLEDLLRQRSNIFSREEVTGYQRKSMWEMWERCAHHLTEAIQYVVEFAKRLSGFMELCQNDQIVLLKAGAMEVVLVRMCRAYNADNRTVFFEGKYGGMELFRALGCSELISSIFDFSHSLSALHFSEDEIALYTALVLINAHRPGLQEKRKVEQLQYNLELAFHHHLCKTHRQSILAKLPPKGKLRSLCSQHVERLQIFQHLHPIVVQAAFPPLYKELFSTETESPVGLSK

mouse RORγ = target: T2, mouse RORγ (Mus musculus, UniProt P51450); experiment: Luciferase reporter gene assay of inhibitory effect against RORγ transcriptional activity (GAL4-mRORγ plasmid in CHO cells); format: cell-based
T2 construct: mouse, NM_011281.2 and from Ile251 to Lys516; expressed in transfected cells; host or cells: CHO cells (transient co-transfection with pG5-Luc reporter)
T2 sequence (P51450 251-516): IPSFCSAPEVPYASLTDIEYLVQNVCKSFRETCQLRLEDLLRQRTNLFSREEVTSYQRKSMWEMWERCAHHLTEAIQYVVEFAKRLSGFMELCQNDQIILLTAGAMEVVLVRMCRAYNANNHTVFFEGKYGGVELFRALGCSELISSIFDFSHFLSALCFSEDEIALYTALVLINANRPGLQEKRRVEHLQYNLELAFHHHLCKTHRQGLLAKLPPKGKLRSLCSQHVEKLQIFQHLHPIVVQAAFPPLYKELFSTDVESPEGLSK
In short: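 Readout is intracellular luciferase after 2-day compound exposure (8 concentrations, 0.1% DMSO) in CHO cells expressing GAL4 fused to mouse RORγ LBD residues Ile251–Lys516 plus pG5-Luc reporter. EC50 fitted from %-of-control; points showing resazurin-detected cytotoxicity dropped.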

Compound | EC50 (human RORγ; read-out: LUC EC50 (μM) hRORg) | EC50 (mouse RORγ; read-out: LUC EC50 (μM) mRORg) | EC50 (human RORγ; read-out: LUC EC50 hRORg) | EC50 (mouse RORγ; read-out: LUC EC50 mRORg)
Cc1ccc(O)cc1NC(=O)CCc1nnc(CCC(C)C)n1C1CC1 [Example F-192] | > 3 µM | > 3 µM |  | 
COc1ccc(F)cc1CNC(=O)CCc1nnc(CCC(C)C)n1C1CC1 [Example F-208] | > 3 µM | > 3 µM |  | 
Cc1ccc(NC(=O)C[C@H](N)c2nnc(CCCC(C)(C)C)n2C2CC2)c(C)c1 [Example F-359] | < 3 µM | < 3 µM |  | 
Cc1ccc(NC(=O)CCc2noc(C3(O)CC(CC(C)(C)C)C3)c2C2CC2)c(Cl)c1 (mixture of isomers) [Example F-732] |  |  | < 3 µM | < 3 µM
Cc1ccc(NC(=O)C[C@H](CCC(=O)O)c2noc(-c3csc(CC(C)C)n3)c2C2CC2)c(Cl)c1 [Example E-36] | > 3 µM | < 3 µM |  | 
Cc1c(Cl)cccc1NC(=O)CCc1nnc(CCOC(C)(C)C(F)(F)F)n1C1CC1 [Example F-304] | < 3 µM | < 3 µM |  | 
Cc1ccc(NC(=O)[C@H]2CN(C(=O)C(C)C)C[C@@H]2c2nnc([C@H]3C[C@@H](CC(C)(C)C)C3)n2C2CC2)c(C)c1 [Example F-553] |  |  | < 3 µM | < 3 µM
Cc1ccc(NC(=O)C[C@H](CCC(=O)O)c2noc(-c3cc(CC(C)C)on3)c2C2CC2)c(F)c1 [Example E-03] | < 3 µM | < 3 µM |  | 
Cc1ccc(NC(=O)C[C@H](CCC(=O)O)c2noc(-c3cc(CC(C)C)on3)c2C2CC2)c(Cl)c1 [Example E-01] | < 3 µM | < 3 µM |  | 
Cc1ccc(NC(=O)CCc2noc(CCCC(C)(C)C)c2C2CC2)c(Cl)c1 [Example F-729] |  |  | < 3 µM | < 3 µM
Cc1c(Cl)cccc1NC(=O)CCc1nnc(CCC(=O)N(C)C)n1C1CC1 [Example F-184] | > 3 µM | > 3 µM |  | 
CC(C)(C)C[C@H]1C[C@@H](c2onc([C@@H](CCC(=O)O)CC(=O)NCC3CCOCC3)c2C2CC2)C1 [Example F-736] |  |  | > 3 µM | > 3 µM
Cc1ccc(NC(=O)C[C@H](OCC(C)C)c2nnc([C@H]3C[C@@H](CC(C)C)C3)n2C2CC2)c(C)c1 [Example F-582] |  |  | < 3 µM | < 3 µM
CC(=O)N1C[C@H](C(=O)Nc2ccc(C)cc2C)[C@@H](c2nnc(CCC3CCCCC3)n2C2CC2)C1 [Example F-374] | < 3 µM | < 3 µM |  | 
Cc1ccc(NC(=O)C[C@H](CCC(=O)O)c2onc(-c3cc(C(F)(F)C(C)(C)C)on3)c2C2CC2)c(Cl)c1 [Example E-52, Sodium (S)-5-(2-chloro-4-methyl-phenylcarbamoyl)-4-[4-cyclopropyl-5′-(1,1-difluoro-2,2-dimethylpropyl)-[3,3′]biisoxazolyl-5′-yl]pentanoate] | < 3 µM | < 3 µM |  | 
Cc1ccc(NC(=O)[C@H]2CN(S(=O)(=O)CC(F)(F)F)C[C@@H]2c2nnc([C@H]3C[C@@H](CC(C)(C)C)C3)n2C2CC2)c(C)c1 [Example F-559] |  |  | < 3 µM | < 3 µM
O=C(CCc1nnc(C2Cc3ccccc3C2)n1C1CC1)Nc1cccc2ccccc12 [Example F-4] | < 3 µM | < 3 µM |  | 
Cc1ccc(NC(=O)C[C@H](CCC(=O)O)c2noc3c2C(C)CCC3CCC(C)C)c(Cl)c1 (single isomer, unassigned) [Example F-690] |  |  | > 3 µM | < 3 µM
Cc1ccc(NC(=O)[C@H]2CNC[C@@H]2c2nnc(CCCC(C)(C)C)n2C2CC2)c(C)c1 (racemic) [Example F-449] | > 3 µM | > 3 µM |  | 
Cc1ccc(NC(=O)C[C@H](OC(C)C)c2nnc([C@H]3C[C@@H](CC(C)C)C3)n2C2CC2)c(C)c1 [Example F-558] |  |  | < 3 µM | < 3 µM
Cc1ccc(NC(=O)CC(Cc2nc(=O)o[nH]2)c2nnc([C@H]3C[C@@H](CC(C)C)C3)n2C2CC2)c(C)c1 (mixture of isomers) [Example F-472] | < 3 µM | < 3 µM |  | 
CCCn1c(CCC(=O)Nc2cccc3ccccc23)nnc1C1Cc2ccccc2C1 [Example F-5] | > 3 µM | > 3 µM |  | 
